From ChEMBL document CHEMBL5346960, “Quantitative Attribution of the Protective Effects of Aminosterols against Protein Aggregates to Their Chemical Structures and Ability to Modulate Biological Membranes” (2023)
Active and inactive are the calls of the source. The calls are words filed in the database; no cut-off is given here.

Assays:
Lipid bilayer [1] = test: Binding affinity to large unilamellar vesicles liposome model assessed as saturation concentration by measuring increase in LUV mass incubated for 15 mins by light scattering analysis; settings: filed as modulator
Lipid bilayer [2] = test: Binding affinity to large unilamellar vesicles liposome model assessed as saturation concentration by measuring increase in incorporated compound mass incubated for 15 mins by light scattering analysis; settings: filed as modulator
Lipid bilayer [3] = test: Binding affinity to large unilamellar vesicles liposome model assessed as increase in LUV diameter incubated for 15 mins by light scattering analysis
Lipid bilayer [4] = test: Binding affinity to large unilamellar vesicles liposome model assessed as increase in LUV size incubated for 15 mins by light scattering analysis; settings: filed as modulator
Lipid bilayer [5] = test: Binding affinity to large unilamellar vesicles liposome model assessed as increase in transition temperature […] (reference value: 24.5 +/- 2 degreeC); settings: filed as modulator
Lipid bilayer [6] = test: Induction of membrane redistribution in large unilamellar vesicles liposome model assessed as mean shortest distance between BODIPY-FL C5-GM1 and BODIPY-542/563 C11-CHOL at 5 uM by FRET assay relative to control; settings: filed as modulator
Lipid bilayer [7] = test: Induction of membrane redistribution in large unilamellar vesicles liposome model assessed as mean shortest distance between BODIPY-FL-CHOL and BODIPY-542/563 C11-CHOL at 5 uM by FRET assay relative to control; settings: filed as modulator
Lipid bilayer [8] = test: Displacement of alpha-synuclein from DMPS large unilamellar vesicles liposome model incubated for 15 mins by Far-UV CD spectroscopy; settings: filed as modulator, dose <= 70.0 µM
SH-SY5Y [9] = test: Protection against human SH-SY5Y cells assessed as decrease in ADDL-induced cytosolic calcium level incubated for 15 mins by Fluo-4 AM dye based scanning confocal microscopic analysis; type: functional, cell-based; settings: dose 0.05-5 µM
SH-SY5Y [10] = test: Protection against human SH-SY5Y cells assessed as decrease in ADDL-induced cytosolic calcium level at 5 uM incubated for 15 mins by Fluo-4 AM dye based scanning confocal microscopic analysis; type: functional; parameters: scale not given: the % may be the effect or the level left; settings: 0.25 h
Lipid bilayer [11] = test: Induction of membrane redistribution in large unilamellar vesicles liposome model assessed as mean shortest distance between BODIPY-FL C5-GM1 and BODIPY-542/563 C11-CHOL at 5 uM by FRET assay (reference value: 65 +/- 1 Angstrom); settings: filed as modulator
Lipid bilayer [12] = test: Induction of membrane redistribution in large unilamellar vesicles liposome model assessed as mean shortest distance between BODIPY-FL-CHOL and BODIPY-542/563 C11-CHOL at 5 uM by FRET assay (reference value: 72 +/- 1 Angstrom); settings: filed as modulator
Lipid bilayer [13] = test: Induction of membrane redistribution in large unilamellar vesicles liposome model assessed as mean shortest distance between BODIPY-FL-SM and BODIPY-542/563 C11-CHOL at 5 uM by FRET assay (reference value: 69 +/- 1 Angstrom); settings: filed as modulator
Lipid bilayer [14] = test: Induction of membrane redistribution in large unilamellar vesicles liposome model assessed as mean shortest distance between BODIPY-FL-DOPC and BODIPY-542/563 C11-CHOL at 5 uM by FRET assay (reference value: 70 +/- 2 Angstrom); settings: filed as modulator
Lipid bilayer [15] = test: Binding affinity to large unilamellar vesicles liposome model assessed as saturation concentration by microfluidic analysis; settings: filed as modulator

SMILES	Activity (Lipid bilayer [1]) [µM]	Activity (Lipid bilayer [2]) [µM]	Activity (Lipid bilayer [3])	Activity (Lipid bilayer [4])	T (Lipid bilayer [5]) [°C]	Activity (Lipid bilayer [6]) [%]	Activity (Lipid bilayer [7]) [%]	Activity (Lipid bilayer [8])	Activity (SH-SY5Y [9])	Activity (SH-SY5Y [10]) [%]	Activity (Lipid bilayer [11]) [Angstrom]	Activity (Lipid bilayer [12]) [Angstrom]	Activity (Lipid bilayer [13]) [Angstrom]	Activity (Lipid bilayer [14]) [Angstrom]	Activity (Lipid bilayer [15]) [µM]
C[C@H](CCC[C@H](C)C(=O)O)[C@H]1CC[C@H]2[C@@H]3[C@H](O)C[C@H]4C[C@@H](NCCCNCCCCNCCCN)CC[C@]4(C)[C@H]3CC[C@]12C	43	43	inactive	Active	46	57	64	Dose-Dependent Effect	Dose-Dependent Effect	100	73	63	69	67	–
CC(C)[C@@H](CC[C@@H](C)[C@H]1CC[C@H]2[C@@H]3[C@H](O)C[C@H]4C[C@@H](NCCCNCCCCN)CC[C@]4(C)[C@H]3CC[C@]12C)OS(=O)(=O)O [SQUALAMINE]	12	15	inactive	Active	35	50	57	Dose-Dependent Effect	Dose-Dependent Effect	100	72	64	72	68	–
CC(C)[C@@H](CC[C@@H](C)[C@H]1CC[C@H]2[C@@H]3[C@H](O)C[C@H]4C[C@@H](NCCCNCCCCNCCCN)CC[C@]4(C)[C@H]3CC[C@]12C)OS(=O)(=O)O [TRODUSQUEMINE]	35	35	inactive	Active	46	100	100	Dose-Dependent Effect	Dose-Dependent Effect	100	79	58	67	68	28
